{"source": "patent US20230043407A1", "about": "“ELECTROSTATICALLY GATED NANOFLUIDIC MEMBRANES FOR CONTROL OF MOLECULAR TRANSPORT” (THE METHODIST HOSPITAL SYSTEM, priority 2020, published 2023)", "experiment": "In vitro release rate modulation across electrostatically gated nanofluidic membrane", "conditions": "active phases, gate voltage −1.5 V, vs passive phases (0 V); sink 0.01×PBS", "description": "Release modulation experiments were performed with a custom made, two reservoirs fixture comprising of a macro cuvette (sink reservoir) and a drug reservoir. The cuvette was glued with UV epoxy (OG116, Epoxy Technologies, Inc.) to a PMMA (McMaster Carr, Douglasville, Ga.) membrane holder. The drug reservoir (500 μL capacity), made of PMMA, was secured to the membrane holder through 2 SS316L M3 screws. The membrane under testing was clamped between the two PMMA pieces, with 2 O-rings (2418T113, McMaster Carr, Douglasville, Ga.) to avoid solution leakage. The reservoir was capped with a silicone plugs (9277K87, McMaster Carr, Douglasville, Ga.).\nRelease modulation experiments were performed using 300 nm membranes with both poly-Si and SiC deposition. […]\nThe assembled diffusion fixtures were then loaded in a robotic carousel^20, which is connected to a Cary 50 UV-vis spectrophotometer (Agilent Technologies). Absorbance measurements of the sink reservoir were automatically performed every 5 minutes. […]\nGraphs were plotted and statistical data analyses were performed with GraphPad Prism 8 (version 8.1.1; GraphPad Software, Inc., La Jolla, Calif.). […] Statistical significance was determined using paired t-tests. […]"}
{"substance": "Alexa Fluor 647 [AF647]", "values": [{"measurement": "reduction of release rate", "value": 60, "unit": "%"}]}
